Test results published in PMC7179685, “Iminosugars With Endoplasmic Reticulum α-Glucosidase Inhibitor Activity Inhibit ZIKV Replication and Reverse Cytopathogenicity in vitro” (Frontiers in Microbiology, 2020).

Assays:
[1] = system: ZIKV PRVABC59; test: Virus yield reduction assay (qRT-PCR and TCID50) in CHME3 cells; type: cell-based, Zika virus; conditions: 1 μM, 48 hpi
Method: (§1) Zika virus yield reduction following treatment with iminosugars was assessed by measuring the NS1 gene by a previously described quantitative reverse transcription-polymerase chain reaction (qRT-PCR) and infectious virus titration in Vero cells ([Reed and Muench, 1938]; [Goebel et al., 2016]). Vero and CHME3 cells pre-treated 1 μM of castanospermine, celgosivir or DNJ for 2 h and then were infected with PRVABC59 either at MOI 0.5 or 5 in infection medium. After 2 h of incubation with the virus, medium from cells was removed, cells were washed with phosphate buffered saline, and fresh infection medium containing 1 μM of castanospermine, celgosivir or DNJ was added to the wells. At 48 and 72 hpi, culture supernatants were harvested and stored at −80°C until use for viral RNA extraction. Viral RNA was extracted from 50 μl of sample using the MagMAX-96 Viral RNA Isolation Kit (Applied Biosystems, Foster City, CA, United States) on a MagMAX Express-96 Deep Well Magnetic Particle Processor (Applied Biosystems). The amount of ZIKV genomic RNA was measured by qRT-PCR using SuperScript® III Platinum One-Step qRT-PCR Kit on a 7500 Fast Real-Time PCR System (Applied Biosystems). The primers (F: 5′-[…]-3′, R: 5′-[…]-3′) and probe sequence (5′- FAM-TGCCCAACA/ZEN/CAAGGTGAAGCC TACCT-BHQ) were purchased from Integrated DNA Technologies (IDT; Coralville, IA, United States), and the qRT-PCR cycling conditions included an initial cDNA synthesis for 30 min at 50°C, followed by 2 min at 95°C and 45 cycles of 2-step cycling at 95°C for 15 s, then 55°C for 30 s ([Goebel et al., 2016]). The ZIKV copy numbers were quantified using a standard curve generated with serial dilutions of positive control ZIKV RNA standards derived from ZIKV with known TCID50 value. Cell culture supernatants were titrated for the infectious virus in Vero cells, and titer was expressed as TCID50 calculated using the Reed-Muench method ([Reed and Muench, 1938]).

[2] = system: ZIKV strain PRVABC59; test: Antiviral screening assay (MTS cell viability after infection) in Vero cells; type: cell-based, Zika virus
Method: (§2) A cell viability assay was used to evaluate both the cytotoxicity and antiviral abilities of the iminosugars with appropriate controls as previously described ([Fletcher et al., 2000]) using the CellTiter 96® AQueous One Solution Cell Proliferation Assay (MTS, Promega, Madison, WI, United States) following the manufacturer’s instructions. At 60–70% confluence, Vero cells and CHME3 cells were pretreated with iminosugars for 2 h and then infected with ZIKV according to the plate layout shown in Supplementary Figure S1. Four biological replicates were used to assess cytotoxicity, and six replicates were used to assess the antiviral ability of each iminosugar with concentrations ranging from 0.01 to 1000 μM or vehicle (sterile nuclease-free water). Cells treated with iminosugars or vehicle control were infected with ZIKV strain PRVABC59, IBH30656 or MEX 2-81 at a multiplicity of infection (MOI) of 1 in infection medium consisting of DMEM supplemented with 5% FBS and 1% antibiotic/antimycotic solution. The CHME3 infection medium was additionally supplemented with 0.1% non-essential amino acids (NEAA). At 72 h post-infection (hpi), MTS solution was added to the wells, and after 2 h, the optical density was measured at 490 nm using a microplate reader (ELx800; BioTek, Winooski, VT, United States). Previous studies have shown that ER α-glucosidase inhibitor, Celgosivir prevents DENV secretion in primary human macrophages with an EC50 of 5 μM and has CC50 greater than 1000 μM in MBDK cells ([Whitby et al., 2004]; [Sung et al., 2016]).

[3] = system: ZIKV PRVABC59; test: Virus yield reduction assay (qRT-PCR and TCID50) in Vero cells; type: cell-based, Zika virus; conditions: 1 μM, 48 hpi
Method: as §1

[4] = system: ZIKV strain PRVABC59; test: Antiviral screening assay (MTS cell viability after infection) in CHME3 cells; type: cell-based, Zika virus
Method: as §2

[5] = system: CHME3 cells; test: Measurement of necrosis, LDH assay in ZIKV-infected CHME3 cells; type: cell-based, Human; conditions: PRVABC59, MOI 1, 72 hpi
Method: Cell necrosis was evaluated by measuring the levels of lactate dehydrogenase (LDH) in cells using the CytoTox 96 Non-Radioactive Cytotoxicity Assay (Promega) following the manufacturer’s instructions. LDH is a soluble stable cytosolic enzyme present in many cell types which is rapidly released into the cell culture medium following disruption of the plasma membrane. LDH is a widely used marker to measure cellular cytotoxicity and necrosis. CHME3 cells in 96-well cell culture plates were pre-treated with celgosivir for 2 h and then infected with PRVABC59 at MOI 1 in the presence of celgosivir at concentrations ranging from 0.01 to 1000 μM or vehicle. Controls for media color, cells, and virus were included. At 48 and 72 hpi, 50 μl of supernatant from each well was transferred into a new 96-well plate, and 50 μl of CytoTox 96® Reagent was added to each well. After incubating at room temperature in the dark, 50 μl of Stop Solution was added to each well, and the optical density was measured at 490 nm using an ELx800 microplate reader (BioTek).

## CCCC(=O)O[C@H]1CN2CC[C@H](O)[C@@H]2[C@@H](O)[C@@H]1O [celgosivir, 6-O-butanoyl castanospermine]
[1]; MOI 0.5
  infectious PRVABC59 ZIKV titers (TCID50): statistically significant reduction
[1]; MOI 5, p ≤ 0.0433
  infectious PRVABC59 ZIKV titers (TCID50): statistically significant reduction
[2]; Vero cells, PRVABC59, MOI 1, 72 hpi
  ZIKV-induced cell death (MTS): reduce ZIKV-induced cell death
[2]; Zika virus, Vero, read-out: cell viability following ZIKV infection
  viability at 0.01 µM: > 90%
[3]; MOI 0.5 and MOI 5, p ≤ 0.0318
  PRVABC59 ZIKV RNA in supernatant compared with vehicle control (qRT-PCR): Significant reductions
[3]; MOI 0.5 and MOI 5, p ≤ 0.0433
  infectious PRVABC59 ZIKV titers (TCID50): statistically significant reduction
[4]; CHME3 cells, PRVABC59, MOI 1, 72 hpi
  ZIKV-induced cell death (MTS): reduce ZIKV-induced cell death
[4]; Zika virus, read-out: cell viability following ZIKV infection
  viability at 0.01 µM: > 90%
[5]
  ZIKV-induced LDH activity (necrosis): reduced PRVABC59 ZIKV-induced LDH activity to levels equivalent to mock-infected cells
